The record followed here is ChEMBL document CHEMBL1130804, “Potent antimitotic and cell growth inhibitory properties of substituted chalcones” (Bioorg Med Chem Lett, 1998).

For one experiment, the system named is K562. As to the kind of experiment: Compound was evaluated for cytotoxic activity against K562 human chronic myelogenous leukemia cell line using MTT assay. The experiment is classed as functional, cell-based.
A further experiment deals with Tubulin alpha chain (Sus scrofa, UniProt P02550). The experiment can be described thus: Tested for inhibition of polymerization of tubulin.
Tubulin alpha chain, sequence (P02550 whole entry, looked up): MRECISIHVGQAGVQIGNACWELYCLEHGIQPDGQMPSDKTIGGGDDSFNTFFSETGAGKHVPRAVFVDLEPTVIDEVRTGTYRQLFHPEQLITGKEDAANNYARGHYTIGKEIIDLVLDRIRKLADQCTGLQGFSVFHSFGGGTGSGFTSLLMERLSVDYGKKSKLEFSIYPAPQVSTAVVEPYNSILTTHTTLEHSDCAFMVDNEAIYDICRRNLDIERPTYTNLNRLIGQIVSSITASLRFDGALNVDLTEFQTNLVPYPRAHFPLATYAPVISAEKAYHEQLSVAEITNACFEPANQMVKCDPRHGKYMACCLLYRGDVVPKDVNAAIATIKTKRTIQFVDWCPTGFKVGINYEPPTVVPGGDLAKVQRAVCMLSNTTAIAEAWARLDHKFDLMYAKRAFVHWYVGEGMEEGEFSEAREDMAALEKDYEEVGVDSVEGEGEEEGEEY
For a further experiment, the system named is HeLa. As to the kind of experiment: Compound was evaluated for cytotoxic activity against HeLa S3 cell line. The experiment is classed as functional, cell-based. The following applies: Homo sapiens.

Turning to `COc1cc(C(=O)/C=C/c2ccc3c(c2)OCCO3)cc(OC)c1OC`, 80 nM corresponded to half-maximal inhibition in the experiment with K562 (IC50). `COc1cc(C(=O)/C(C)=C/c2ccc3c(c2)OCO3)cc(OC)c1OC` gave an IC50 with K562 of 14 nM. On the same count and under the same terms, the same measure for `COc1cc(C(=O)/C=C/c2ccc3c(c2)OCO3)cc(OC)c1OC`: 300 nM; for `COc1ccc(OC)c(C(=O)/C=C/c2ccc(N(C)C)cc2)c1`: 36 nM. Consider `COc1ccc(OC)c(C(=O)/C(C)=C/c2ccc(N(C)C)cc2)c1`, for which the results for the IC50 on Tubulin alpha chain and in the experiment on K562 were 12 nM and 11 nM, respectively. As to `COc1ccc(/C=C(\C)C(=O)c2cc(OC)c(OC)c(OC)c2)cc1O`, the 50% inhibitory concentration (IC50) stood at 0.21 nM in the experiment with K562 and 0.62 nM in the experiment with HeLa.

In the experiment with K562, `COc1cc(C(=O)/C(C)=C/c2ccc3c(c2)OCCO3)cc(OC)c1OC` registered an IC50 of 12 nM. Still for that read-out and setting: the same measure for `COc1ccc(/C=C/C(=O)c2cc(OC)c(OC)c(OC)c2)cc1O`: 4.3 nM.

As a reminder, the IC50 is the concentration at which inhibition is half-maximal. Low values mean greater potency, high ones weaker potency.
